Laboratory results as given in patent US10479780B2, “Aminopyrazole derivatives” (Chugai Seiyaku Kabushiki Kaisha, priority 2015, dated 2019).

Assays:
Type in all cases: biochemical
[1] = target: T1, human Lck enzyme (Homo sapiens, UniProt P06239); assay: Lck enzyme inhibitory activity (time-resolved fluorometry, biotinylated peptide phosphorylation); details: biotinylated peptide phosphorylation, read-out: LCK_IC50
T1 construct: purchased Carna Biosciences, Inc. 08-170
Procedure, shortened: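 Readout pairs a europium cryptate-labelled anti-phosphotyrosine antibody with XL665-streptavidin, measured by time-resolved fluorescence. IC50 derived from percent inhibition against untreated controls.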

[2] = target: T2, human Yes1 enzyme (Homo sapiens, UniProt P07947); assay: Yes1 enzyme inhibitory activity (time-resolved fluorometry, biotinylated peptide phosphorylation); details: biotinylated peptide phosphorylation, read-out: YES_IC50
T2 construct: made in house
T2 sequence (P07947 whole entry): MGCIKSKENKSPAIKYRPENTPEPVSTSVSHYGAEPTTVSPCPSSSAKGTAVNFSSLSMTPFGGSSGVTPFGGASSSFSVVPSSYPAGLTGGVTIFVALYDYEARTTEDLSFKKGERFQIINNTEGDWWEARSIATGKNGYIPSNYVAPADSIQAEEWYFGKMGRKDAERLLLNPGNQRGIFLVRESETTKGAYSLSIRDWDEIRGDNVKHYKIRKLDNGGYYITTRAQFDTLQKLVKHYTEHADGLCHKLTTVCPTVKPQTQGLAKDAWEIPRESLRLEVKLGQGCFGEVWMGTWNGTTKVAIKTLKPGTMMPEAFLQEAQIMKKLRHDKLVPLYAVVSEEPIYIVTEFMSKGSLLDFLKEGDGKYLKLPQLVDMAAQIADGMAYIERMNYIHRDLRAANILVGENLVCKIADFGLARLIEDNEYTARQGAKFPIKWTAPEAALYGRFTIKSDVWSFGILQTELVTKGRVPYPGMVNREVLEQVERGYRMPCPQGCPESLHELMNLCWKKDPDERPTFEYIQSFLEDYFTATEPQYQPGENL
Procedure, shortened: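 Inhibition was expressed against a compound-free control to give IC50, using TR-FRET read-out (Eu-cryptate anti-pTyr antibody, streptavidin-XL665).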

[3] = target: T3, human Src enzyme (Homo sapiens, UniProt P12931); assay: Src enzyme inhibitory activity (time-resolved fluorometry, biotinylated peptide phosphorylation); details: biotinylated peptide phosphorylation, read-out: SRC_IC50
T3 construct: purchased Carna Biosciences, Inc. 08-173
T3 sequence (P12931 whole entry): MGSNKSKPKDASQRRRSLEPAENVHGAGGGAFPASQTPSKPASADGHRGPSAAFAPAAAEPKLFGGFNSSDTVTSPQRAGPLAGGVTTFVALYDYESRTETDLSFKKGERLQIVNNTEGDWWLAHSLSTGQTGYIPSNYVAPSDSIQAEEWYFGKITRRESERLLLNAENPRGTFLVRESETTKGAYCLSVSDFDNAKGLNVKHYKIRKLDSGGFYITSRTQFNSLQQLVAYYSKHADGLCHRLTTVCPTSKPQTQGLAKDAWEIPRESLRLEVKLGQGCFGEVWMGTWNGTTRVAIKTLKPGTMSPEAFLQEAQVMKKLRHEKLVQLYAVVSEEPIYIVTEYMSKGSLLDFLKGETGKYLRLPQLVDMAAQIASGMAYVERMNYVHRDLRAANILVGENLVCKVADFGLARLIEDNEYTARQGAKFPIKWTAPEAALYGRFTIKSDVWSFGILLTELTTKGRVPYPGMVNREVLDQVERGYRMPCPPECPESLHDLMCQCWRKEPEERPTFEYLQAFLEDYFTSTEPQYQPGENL
Procedure, shortened: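 Compounds were tested for blocking tyrosine phosphorylation of a biotinylated peptide substrate by recombinant human Src. Phosphorylated product was quantified by time-resolved fluorometry using europium cryptate and XL665 conjugates, and IC50 was calculated against the compound-free control.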

T1 sequence (P06239 whole entry): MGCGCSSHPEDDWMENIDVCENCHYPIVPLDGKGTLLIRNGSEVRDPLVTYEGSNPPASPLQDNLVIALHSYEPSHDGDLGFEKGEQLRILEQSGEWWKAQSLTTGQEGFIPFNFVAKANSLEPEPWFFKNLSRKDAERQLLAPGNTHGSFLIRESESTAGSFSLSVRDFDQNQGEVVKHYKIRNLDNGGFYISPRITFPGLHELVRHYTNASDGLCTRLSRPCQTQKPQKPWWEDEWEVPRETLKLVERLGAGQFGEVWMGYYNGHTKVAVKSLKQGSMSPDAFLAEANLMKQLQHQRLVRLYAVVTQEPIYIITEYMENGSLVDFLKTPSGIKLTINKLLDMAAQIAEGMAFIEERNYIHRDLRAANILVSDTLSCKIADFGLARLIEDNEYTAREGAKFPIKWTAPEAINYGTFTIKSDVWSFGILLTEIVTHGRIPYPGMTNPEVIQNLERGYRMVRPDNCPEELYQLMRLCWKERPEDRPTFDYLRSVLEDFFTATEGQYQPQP

Row | Structure (SMILES) | IC50 [1] [nM] | IC50 [2] [nM] | IC50 [3] [nM]
1 | Cc1cc2cc(C(=O)c3cnn(-c4cnc(Oc5c(F)cccc5F)cc4C)c3N)[nH]c2cc1NS(=O)(=O)c1cccc(C#N)n1 [Example 5-1-536, N-[2-[5-amino-1-[6-(2,6-difluorophenoxy)-4-methylpyridin-3-yl]pyrazole-4-carbonyl]-5-methyl-1H-indol-6-yl]-6-cyanopyridine-2-sulfonamide] | 92 | 9.2 | 560
2 | Cc1cc(Oc2ccccc2F)ccc1-n1ncc(C(=O)c2cc3cc(F)c(NS(=O)(=O)c4cccc(C#N)n4)cc3[nH]2)c1N [Example 5-1-537, N-[2-[5-amino-1-[4-(2-fluorophenoxy)-2-methylphenyl]pyrazole-4-carbonyl]-5-fluoro-1H-indol-6-yl]-6-cyanopyridine-2-sulfonamide] | 57 | 3 | 320
3 | Cc1cc(Oc2c(F)cccc2F)ncc1-n1ncc(C(=O)c2cc3cc(F)c(NS(=O)(=O)c4cccc(C#N)n4)cc3[nH]2)c1N [Example 5-1-538, N-[2-[5-amino-1-[6-(2,6-difluorophenoxy)-4-methylpyridin-3-yl]pyrazole-4-carbonyl]-5-fluoro-1H-indol-6-yl]-6-cyanopyridine-2-sulfonamide] | 140 | 9.6 | 680
4 | Cc1cc(Oc2ccccc2F)ncc1-n1ncc(C(=O)c2cc3cc(F)c(NS(=O)(=O)c4cccc(C#N)n4)cc3[nH]2)c1N [Example 5-1-539, N-[2-[5-amino-1-[6-(2-fluorophenoxy)-4-methylpyridin-3-yl]pyrazole-4-carbonyl]-5-fluoro-1H-indol-6-yl]-6-cyanopyridine-2-sulfonamide] | 220 | 11 | 800
5 | Cc1cc2cc(C(=O)c3cnn(-c4ccc(Oc5ccccc5F)cc4C)c3N)[nH]c2cc1NS(=O)(=O)c1cncc(Cl)c1 [Example 5-1-540, N-[2-[5-amino-1-[4-(2-fluorophenoxy)-2-methylphenyl]pyrazole-4-carbonyl]-5-methyl-1H-indol-6-yl]-5-chloropyridine-3-sulfonamide] | 96 | 3.5 | 350
6 | Cc1cc2cc(C(=O)c3cnn(-c4cnc(Oc5c(F)cccc5F)cc4C)c3N)[nH]c2cc1NS(=O)(=O)c1cncc(Cl)c1 [Example 5-1-541, N-[2-[5-amino-1-[6-(2,6-difluorophenoxy)-4-methylpyridin-3-yl]pyrazole-4-carbonyl]-5-methyl-1H-indol-6-yl]-5-chloropyridine-3-sulfonamide] | 280 | 12 | 660
7 | Cc1cc(Oc2ccccc2F)ccc1-n1ncc(C(=O)c2cc3cc(F)c(NS(=O)(=O)c4cncc(Cl)c4)cc3[nH]2)c1N [Example 5-1-542, N-[2-[5-amino-1-[4-(2-fluorophenoxy)-2-methylphenyl]pyrazole-4-carbonyl]-5-fluoro-1H-indol-6-yl]-5-chloropyridine-3-sulfonamide] | 180 | 3.6 | 430
8 | Cc1cc(Oc2c(F)cccc2F)ncc1-n1ncc(C(=O)c2cc3cc(F)c(NS(=O)(=O)c4cncc(Cl)c4)cc3[nH]2)c1N [Example 5-1-543, N-[2-[5-amino-1-[6-(2,6-difluorophenoxy)-4-methylpyridin-3-yl]pyrazole-4-carbonyl]-5-fluoro-1H-indol-6-yl]-5-chloropyridine-3-sulfonamide] | 360 | 9.8 | 640
9 | Cc1cc(Oc2ccccc2F)ncc1-n1ncc(C(=O)c2cc3cc(F)c(NS(=O)(=O)c4cncc(Cl)c4)cc3[nH]2)c1N [Example 5-1-544, N-[2-[5-amino-1-[6-(2-fluorophenoxy)-4-methylpyridin-3-yl]pyrazole-4-carbonyl]-5-fluoro-1H-indol-6-yl]-5-chloropyridine-3-sulfonamide] | 330 | 8.4 | 680
10 | Cc1cc2cc(C(=O)c3cnn(-c4ccc(Oc5ccccc5F)cc4C)c3N)[nH]c2cc1NS(=O)(=O)c1cncc(F)c1 [Example 5-1-545, N-[2-[5-amino-1-[4-(2-fluorophenoxy)-2-methylphenyl]pyrazole-4-carbonyl]-5-methyl-1H-indol-6-yl]-5-fluoropyridine-3-sulfonamide] | 22 | 3.1 | 150
11 | Cc1cc2cc(C(=O)c3cnn(-c4cnc(Oc5c(F)cccc5F)cc4C)c3N)[nH]c2cc1NS(=O)(=O)c1cncc(F)c1 [Example 5-1-546, N-[2-[5-amino-1-[6-(2,6-difluorophenoxy)-4-methylpyridin-3-yl]pyrazole-4-carbonyl]-5-methyl-1H-indol-6-yl]-5-fluoropyridine-3-sulfonamide] | 78 | 6.1 | 680
12 | Cc1cc(Oc2ccccc2F)ccc1-n1ncc(C(=O)c2cc3cc(F)c(NS(=O)(=O)c4cncc(F)c4)cc3[nH]2)c1N [Example 5-1-547, N-[2-[5-amino-1-[4-(2-fluorophenoxy)-2-methylphenyl]pyrazole-4-carbonyl]-5-fluoro-1H-indol-6-yl]-5-fluoropyridine-3-sulfonamide] | 30 | 2.9 | 350
13 | Cc1cc(Oc2c(F)cccc2F)ncc1-n1ncc(C(=O)c2cc3cc(F)c(NS(=O)(=O)c4cncc(F)c4)cc3[nH]2)c1N [Example 5-1-548, N-[2-[5-amino-1-[6-(2,6-difluorophenoxy)-4-methylpyridin-3-yl]pyrazole-4-carbonyl]-5-fluoro-1H-indol-6-yl]-5-fluoropyridine-3-sulfonamide] | 78 | 7.6 | 640
14 | Cc1cc(Oc2ccccc2F)ncc1-n1ncc(C(=O)c2cc3cc(F)c(NS(=O)(=O)c4cncc(F)c4)cc3[nH]2)c1N [Example 5-1-549, N-[2-[5-amino-1-[6-(2-fluorophenoxy)-4-methylpyridin-3-yl]pyrazole-4-carbonyl]-5-fluoro-1H-indol-6-yl]-5-fluoropyridine-3-sulfonamide] | 80 | 7.7 | 740
15 | Cc1cc2cc(C(=O)c3cnn(-c4ccc(Oc5ccccc5F)cc4C)c3N)[nH]c2cc1NS(=O)(=O)c1cccc(F)c1 [Example 5-1-550, N-[2-[5-amino-1-[4-(2-fluorophenoxy)-2-methylphenyl]pyrazole-4-carbonyl]-5-methyl-1H-indol-6-yl]-3-fluorobenzenesulfonamide] | 72 | 5.1 | 490
16 | Cc1cc2cc(C(=O)c3cnn(-c4cnc(Oc5c(F)cccc5F)cc4C)c3N)[nH]c2cc1NS(=O)(=O)c1cccc(F)c1 [Example 5-1-551, N-[2-[5-amino-1-[6-(2,6-difluorophenoxy)-4-methylpyridin-3-yl]pyrazole-4-carbonyl]-5-methyl-1H-indol-6-yl]-3-fluorobenzenesulfonamide] | 240 | 19 | 970
17 | Cc1cc(Oc2ccccc2F)ccc1-n1ncc(C(=O)c2cc3cc(F)c(NS(=O)(=O)c4cccc(F)c4)cc3[nH]2)c1N [Example 5-1-552, N-[2-[5-amino-1-[4-(2-fluorophenoxy)-2-methylphenyl]pyrazole-4-carbonyl]-5-fluoro-1H-indol-6-yl]-3-fluorobenzenesulfonamide] | 130 | 5.4 | 830
